Patent US7135581B2, “Antiangiogenic agents” (Entremed, Inc., priority 2000, dated 2006)
Read-outs that look alike come from different tables or passages of the source.

What was measured:
[1] = system: HUVEC and MDA-MB-231 cells; experiment: in vitro antiproliferative screening, endothelial versus tumor cells; format: cell-based, human; details: for difference between inhibition of tumor cells and of endothelial cell proliferation (selectivity): MDA-MB-231 versus HUVEC; for antiproliferative activity in vitro (in words): cell line not specified
Description: Compounds with no chain or with variable methylene chain lengths (1–4) were synthesized by replacing hydroxyl group at position-17 of D-ring of 2ME2 to block estrone formation or glucuronation. Similarly several analogs of 17-deoxyestrone with modification at position-2 were synthesized to block the both glucuronation and hydrolysis of the methoxy group to the hydroxyl. For these analogs data will be presented on the synthesis and preliminary in vitro screening in human umbilical vein endothelial cells (HUVEC) and breast cancer tumor MDA-MB-231 cells for antiproliferative activity, and in MCF-7 tumor cancer cells for estrogenic activity.
In order to assess the biological activity of modifications at position 16, the anti-proliferative activity of these analogs was evaluated on human umbilical vein endothelial cells (HUVEC) and breast carcinoma cell line, MDA-MB-231 as models for the anti-angiogenic and anti-tumor activity, respectively.

[2] = system: HUVEC cells; experiment: HUVEC in vitro cellular proliferation inhibition (BrdU, bFGF); format: cell-based, human
Experimental: HUVEC cells were grown in EGM (Clonetics).
HUVEC cells were plated at 5000 cells/ml in 96-well plates. After allowing the cells to attach overnight, the cells were washed with PBS and incubated in the absence of growth factor for 24 h (EBM, 2% FCS, Clonetics). Cells were treated with increasing concentrations of drug in EBM containing 2% FCS and 10 ng/ml bFGF for 48 h at 37° C. Drug preparation, volumes added and BrdU proliferation assay were performed as indicated above.
2-Methoxyestradiol is a potent anti-angiogenic and anti-tumor agent. In order to assess the biological activity of modifications at position 16, the anti-proliferative activity of these analogs was evaluated on human umbilical vein endothelial cells (HUVEC) and breast carcinoma cell line, MDA-MB-231 as models for the anti-angiogenic and anti-tumor activity, respectively.

[3] = system: MCF7 cells; experiment: MCF7 estrogen-dependent proliferation assay (cell counting); format: cell-based; details: for MCF7 Fold stimulation: estrogen-dependent proliferation
Experimental: MCF7 cells, an estrogen dependent breast carcinoma cell line, were maintained in DMEM/F12 (1:1) containing 10% (v/v) fetal bovine serum (Hyclone Laboratories, Logan, Utah) and 1×antibiotic-antimytotic. MCF7 cells were used between passage 60 and passage 90. For MCF7 estrogen-dependent proliferation assay the cells were seeded in complete media at 20–30,000 cells/well in a 24 well plate. After allowing the cells to adhere overnight the seeding density was determined by cell counts. Cells were washed with PBS (37° C.) and starved by placing them in IMEM-phenol red free media containing 2% charcoal-dextran fetal bovine-stripped serum (Georgetown University) and 1×antibiotic-antimitotic. After 3 days of starvation, cells were treated with or without increasing concentrations of compounds, replacing the media every 2–3 days and counted after 8 or 10 days of treatment. Proliferation was measured by cell counting using a Coulter Z1 cell counter (Coulter Corporation, Hialeah, Fla.). Each condition was done in triplicate.

[4] = system: chick embryo chorioallantoic membrane; experiment: chick embryo chorioallantoic membrane (CAM) assay; format: in vivo; details: 100 μg disk, after 48 hours
Experimental: Anti-proliferative activity is evaluated in situ by testing the ability of an improved estradiol derivative to inhibit the proliferation of new blood vessel cells (angiogenesis). A suitable assay is the chick embryo chorioallantoic membrane (CAM) assay described by Crum et al. Science 230:1375 (1985). See also, U.S. Pat. No. 5,001,116, hereby incorporated by reference, which describes the CAM assay. Briefly, fertilized chick embryos are removed from their shell on day 3 or 4, and a methylcellulose disc containing the drug is implanted on the chorioallantoic membrane. The embryos are examined 48 hours later and, if a clear avascular zone appears around the methylcellulose disc, the diameter of that zone is measured.

[5] = system: MDA-MB-231 human breast carcinoma cells; experiment: MDA-MB-231 in vitro cellular proliferation inhibition (BrdU); format: cell-based
Experimental: MDA-MB-231 human breast carcinoma cells were grown in DMEM containing 10% FCS (Hyclone Laboratories, Logan Utah) and supplemented with 2 mM L-Glutamine, 100 units/ml penicillin, 100 μg/ml streptomycin (Irvine Scientific, Santa Anna, Calif.).
MDA-MB-231 cells were plated at 5000 cells/ml in 96-well plates. After allowing the cells to attach overnight, the appropriate fresh media were applied containing differing concentrations of 2-ME2 or derivatives thereof, as described below. Drug was dissolved in DMSO (Sigma, St. Louis, Mo.) and added to the wells in a volume of 200 μl. Cells were incubated for two days at 37° C.; at 32 h BrdU was added. BrdU cell proliferation assay (a nucleotide analogue that is incorporated into DNA) was performed as described by the manufacturer (Roche). Each condition was prepared in triplicate and the experiments were carried out a minimum of two times. Results presented are means +/− SE.

[6] = system: vascular endothelial cell proliferation; details: cited from earlier work
[7] = Table 4, dehydrogenated/substituted 2ME2 derivatives
[8] = Table 4, dehydrogenated/substituted 2ME2 derivatives, read-out: MDA-MB-231 (IC50 μM)
[9] = Homo sapiens, HUVEC, Table 2, 2 substituted E2 derivatives
[10] = Homo sapiens, MDA-MB-231, Table 2, 2 substituted E2 derivatives, read-out: MDA-MB-231 (IC50 μM)

## 16β-(hydroxymethyl)estra-1,3,5(10)-triene-3,17β-diol [Table 3, Entry 6]
[1]
  difference between inhibition of tumor cells and of endothelial cell proliferation (selectivity): 10 fold

## COc1cc2c(cc1O)CC[C@@H]1[C@@H]2CC[C@]2(C)[C@@H](O)CC[C@@H]12 [2-Methoxyestradiol, reference compound]
[2]; Table 1, 17 substituted 2ME2 derivatives
  IC50: 0.66 ± 0.02 µM
[2]; Table 2, 2 substituted E2 derivatives
  IC50: 0.66 µM
[2]; Table 3, 16 substituted 2ME2 derivatives
  IC50: 0.66 ± 0.02 µM
[2]; [7]
  IC50: 0.66 ± 0.02 µM
[3]
  estrogenic activity, proliferation in estrogen dependant MCF-7 cells (in words): not estrogenic over a wide range of concentrations
[3]; Table 1
  MCF7 Fold stimulation: 1.75
[3]; Table 2
  MCF7 Fold stimulation: 1.75
[3]; Table 3
  MCF7 Fold stimulation: 1.75
[4]
  inhibition of cell mitosis and growth of new blood vessels: inhibit cell mitosis and the growth of new blood vessels
[5]; Table 1, 17 substituted 2ME2 derivatives, means +/− SE, read-out: MDA-MB-231 (IC50 μM)
  IC50: 0.5 ± 0.05 µM
[5]; Table 2, 2 substituted E2 derivatives, read-out: MDA-MB-231 (IC50 μM)
  IC50: 0.5 µM
[5]; Table 3, 16 substituted 2ME2 derivatives, read-out: MDA-MB-231 (IC50 μM)
  IC50: 0.5 ± 0.05 µM
[5]; [8]
  IC50: 0.5 ± 0.05 µM

## COc1cc2c(cc1O)CC[C@@H]1C2=CC[C@]2(C)[C@@H](O)CC[C@@H]12 [2-methoxy-estra-1,3,5(10)9(11)-tetraene-3,17β-diol]
[2]; [7]
  IC50: 0.25 µM
[5]; [8]
  IC50: 0.45 µM

## CO[C@@H]1[C@H](OC(=O)NC(=O)CCl)CC[C@]2(CO2)[C@H]1[C@@]1(C)O[C@@H]1CC=C(C)C [AGM-1470]
[6]
  half-maximal inhibition of vascular endothelial cell proliferation at lower concentration than tumor cell proliferation: 4 logs

## COc1cc2c(cc1OC(C)=O)CCC1C2CC[C@@]2(C)C1CC[C@@H]2OC(C)=O (stereo partly drawn) [Entry 6]
[2]; Homo sapiens, HUVEC, Table 1, 17 substituted 2ME2 derivatives
  IC50: 3.6 ± 2 µM
[5]; Homo sapiens, MDA-MB-231, Table 1, 17 substituted 2ME2 derivatives, means +/− SE, read-out: MDA-MB-231 (IC50 μM)
  IC50: 0.59 ± 0.15 µM

## COc1cc2c(cc1O)CC[C@@H]1[C@@H]2CC[C@]2(C)CCC[C@@H]12 [Table 1, Entry 3, 2-methoxyestra-1,3,5(10)-triene-3-ol]
[1]; listed as 2-Methoxy-17-deoxyestrone
  antiproliferative activity in vitro (in words): equal or better antiproliferative activity than 2ME2
[1]; listed as dehydroxy derivative
  antiproliferative activity in vitro (in words): in vitro profile analogous to 2-methoxyestradiol

## COc1cc2c(cc1O)CC[C@@H]1[C@@H]2CC[C@]2(C)[C@@H](C)CC[C@@H]12 [Table 1, Entry 8, 2-methoxy-17β-methylestra-1,3,5(10)-triene-3-ol]
[1]
  antiproliferative activity in vitro (in words): equal or better antiproliferative activity than 2ME2

## CC[C@H]1CC[C@H]2[C@@H]3CCc4cc(O)c(OC)cc4[C@H]3CC[C@]12C [Table 1, Entry 13, 2-methoxy-17β-ethylestra-1,3,5(10)-triene-3-ol]
[1]
  antiproliferative activity in vitro (in words): equal or better antiproliferative activity than 2ME2

## CC(=O)c1cc2c(cc1O)CC[C@@H]1[C@@H]2CC[C@]2(C)[C@@H](O)CC[C@@H]12 [Table 2, Entry 2, 2-acetylestra-1,3,5(10)-triene-3,17β-diol]
[2]
  antiproliferative activity in HUVEC / endothelial cells (in words): poor activity
[5]
  activity in breast tumor MDA-MB-231 cells (in words): good activity

## C[C@]12CC[C@@H]3c4cc(C=O)c(O)cc4CC[C@H]3[C@@H]1CC[C@@H]2O [Table 2, Entry 3, 2-formylestra-1,3,5(10)-triene-3,17β-diol]
[5]
  activity in breast tumor MDA-MB-231 cells (in words): poor activity

## C[C@]12CC[C@@H]3c4cc(CO)c(O)cc4CC[C@H]3[C@@H]1CC[C@@H]2O [Table 2, Entry 4, 2-(hydroxymethyl)estra-1,3,5(10)-triene-3,17β-diol]
[5]
  activity in breast tumor MDA-MB-231 cells (in words): poor activity

## C[C@]12CC[C@@H]3c4cc(N=[N+]=[N-])c(O)cc4CC[C@H]3[C@@H]1CC[C@@H]2O [Table 2, Entry 17, 2-Azidoestra1,3,5(10)-triene-3,17β-diol]
[1]
  antiproliferative activity in vitro (in words): retained considerable antiproliferative activity
[5]; Homo sapiens, MDA-MB-231, read-out: MDA-MB-231 (IC50 μM)
  IC50: 13.3 µM

## CCOc1cc2c(cc1O)CC[C@@H]1[C@@H]2CC[C@]2(C)[C@@H](O)CC[C@@H]12 [Table 2, Entry 18, 2-ethoxyestra-1,3,5(10)-triene3,17β-diol]
[2]; [9]
  IC50: 0.06 µM
[5]; [10]
  IC50: 0.179 µM

## C[C@@]12CCC[C@H]1[C@@H]1CCc3cc(O)ccc3[C@H]1CC2 [Table 2, Entry 19, estra-1,3,5(10)-triene-3-ol]
[2]; [9]
  IC50: 8.66 µM
[5]; [10]
  IC50: 33.9 µM

## COc1cc2c(cc1O)CC[C@@H]1[C@@H]2CC[C@]2(C)[C@@H](O)[C@H](C)C[C@@H]12 [Table 3, Entry 2, 2-methoxy-16α-methylestra-1,3,5(10)-triene-3,17β-diol]
[5]
  activity in MDA-MB-231 compared to 2-methoxyestradiol (in words): better activity than 2-methoxyestradiol

## COc1cc2c(cc1O)CC[C@@H]1[C@@H]2CC[C@]2(C)[C@@H](O)[C@@H](C)C[C@@H]12 [Table 3, Entry 3, 2-methoxy-16β-methylestra-1,3,5(10)-triene-3,17β-diol]
[5]
  drop in activity in MDA-MB-231 compared to 2-methoxyestradiol: about 5 fold

## CCC1C[C@H]2[C@@H]3CCc4cc(O)c(OC)cc4[C@H]3CC[C@]2(C)[C@H]1O (stereo partly drawn) [Table 3, Entry 4, 2-methoxy-16-ethylestra-1,3,5,(10)-triene-3,17β-diol]
[2]
  inhibition of HUVEC cell proliferation compared to 2-methoxyestradiol (in words): about equipotent to 2-methoxyestradiol
[5]
  drop in activity in MDA-MB-231 compared to 2-methoxyestradiol: ~3 fold

## CCC[C@@H]1C[C@H]2[C@@H]3CCc4cc(O)c(OC)cc4[C@H]3CC[C@]2(C)[C@H]1O [Table 3, Entry 7, 2-methoxy-16α-propaneestra-1,3,5(10)-triene-3,17β-diol]
[2]
  antiproliferative activity in HUVEC / endothelial cells (in words): good activity
[1]
  difference between inhibition of tumor cells and of endothelial cell proliferation (selectivity): more than ten-fold less active
